Test results reported in US11401278B2, “Macrocyclic indole derivatives” (The Broad Institute, Inc., priority 2017, dated 2022).
Counter-ions that a name gives are not always drawn. Like-named read-outs stand apart in the source and are kept apart here.

Experiments:
[1] = test system: A2780; experiment: Antiproliferation assay (Assay 7), A2780; assay type: cell-based; details: CellTiter-Glo, several values per example
Description: Assessment of the Anti-Proliferative Effect of Compounds in Different Cell Lines
The impact of compounds on the proliferation of different cell lines was assessed using the CellTiter-Glo® Luminescent Cell Viability reagent from Promega (G7573).
In parallel, cells were plated in a reference (day 0) plate for time zero determination.
Rim wells were excluded. The cells were incubated for 72 hours in a humidified incubator at 37° C. The day 0 plate was measured by adding 30 μL/well of CTG solution (CellTiter-Glo® Luminescent Cell Viability reagent, Promega G7573) to time zero wells in the reference plate followed by a 10 minutes incubation and luminescence reading at 0.1 ms. using the PHERAstar FS microplate reader (BMG Labtech).
After 72 hours incubation, the treated plates were measured in the same way as the day 0 plate mentioned above.

[2] = target: MCL1 protein (Homo sapiens (Human), UniProt Q07820); experiment: PIxEL: protein-protein interaction in permeabilized cells by ELISA (Assay 5); assay type: cell-based; details: permeabilized RKO cells, Biotin-BIM peptide 0.2 μM, serum free; median
Description: PI×EL: Protein-Protein Interaction in Permeabilized Cells by ELISA
Most MCL1 protein molecules are localized at the mitochondria outer membrane and sequester pro-apoptotic proteins through binding of their BCL2 homology domain 3 (BH3 domain). MEB buffer (150 mM mannitol, 10 mM HEPES pH 7.5, 50 mM KCl, 20 μM EDTA, 20 μM EGTA, 5 mM potassium succinate, 0.1% protease-free BSA (SIGMA) with low dose digitonin (0.002%) permeabilizes plasma membrane while leaves live mitochondria, where MCL1 maintains its native localization and conformation. Unlike biophysical assays (e.g. TR-FRET) that use truncated recombinant MCL1 protein, this assay uses full length endogenous MCL1 protein at mitochondria outer membrane. It measures the interaction between MCL1 protein and biotinylated BIM BH3 peptide. Compounds can compete with BIM BH3 peptide to bind to MCL1 protein. This serum free assay measures the affinity between MCL1 protein and compound in permeabilized cells, therefore it is not affected by serum binding and cell permeability, and can measure the intrinsic compound affinity.
On day 1, RKO colon cancer cell line cells were plated at 0.8 million cells/ml, 100 μl/well in 96-well flat bottom TC plates (Corning). MCL1 antibody (Santa Cruz sc-12756) were diluted at 200 fold (final concentration 1 μg/ml) in carbonate buffer (Thermo Fisher Scientific, pH 9.6), and 50 μl of diluted antibody was added to each well of high bind ELISA plates (SARSTEDT). Each plate was tapped to make sure liquid covering entire bottom of wells and incubate at 37° C. overnight.
On the second day, MCL1 antibody was washed from ELISA plate. 250 μl Odyssey® Blocking Buffer (PBS) (Li-Cor) was added to each well, incubated at room temperature for at least 1 hour, then washed once with 250 μl 1×PBST. Plates with RKO cells were gently washed once with 100 μl/well PBS, once with 100 μl/well MEB buffer without digitonin, then 100 μl of MEB buffer with 0.002% digitonin was gently added to each well. Compounds were added with HP Tecan compound dispenser in 3-fold dilution series, highest dose 30 μM, 10-dose per compound in quadruplicates. Biotin-BIM peptide (synthesized by 21st Century) was added with HP Tecan compound dispenser at 0.2 μM immediately after the addition of compounds. Plates were rocked for 1 hour at room temperature. Then MEB buffer was aspirated and 50 μl of CHAPS buffer (50 mM Tris-Cl, pH 7.4, 150 mM NaCl, 1% CHAPS, 1 mM EDTA, 1 mM EGTA, cOmplete protease inhibitors (Roche), PhosSTOP (Roche)) was added to each well. Plates were rocked for 1 hour at 4° C., then 45 μl cell lysate from each well were transferred to ELISA plates coated with MCL1 antibody. Plates were incubated overnight in the cold room with rocking.
On the third day, ELISA plates were washed once with 250 μl 1×PBST. Streptavidin-poly-HRP (Thermo Fisher Scientific) was diluted to 20 ng/ml in Odyssey blocking buffer plus 0.05% Triton-100, and 100 μl was added to each well of the ELISA plate. Plates were incubated at room temperature for 1 hour with rocking, then washed with 100 μL 1×PBST for 3 times. Each SuperSignal ELISA Femto Maximum Sensitivity substrate was added to a 50-ml tube and mixed, then 100 μl of mixed substrate was added to each well. Plates were shaken for 1 minute then luminescence was measured by Envision plate reader […]. Signal of each well were normalized by no-compound control and no-cell control. IC50 was calculated using Graphic Pad PRISM software.

[3] = target: MCL-1 (Homo sapiens (Human), UniProt Q07820, K194A/K197A/R201A); experiment: Protein-compound interaction assay (SPR assay, Assay 8); assay type: binding; details: immobilized MBP-MCL-1, 25° C., geometric mean; for koff: read-out: koff; for kon: read-out: kon
From the text: Assay 8 Protein-Compound Interaction Assay (SPR Assay)
The ability of the compounds described in this invention to bind to MCL-1 may be determined using surface plasmon resonance (SPR). This allows for the quantification of binding in terms of the equilibrium dissociation constant (KD [M]), as well as association and dissociation rate constants (kon [1/M 1/s] and koff [1/s], respectively). The measurements may be performed using Biacore® T200 or Biacore® S200 instruments (GE Healthcare).
For SPR measurements, recombinant MCL-1 (amino acids 173-321, N-terminal fused to Maltose Binding Protein (MBP) (SEQ ID 1) purchased from Beryllium (Bedford, Mass., USA)) was immobilized using standard amine coupling (Johnsson B et al, Anal Biochem. 1991 Nov. 1; 198(2):268-77). Briefly, carboxymethylated dextran biosensor chips (Series S Sensor Chip CMS, GE Healthcare) were activated with 1-ethyl-3-(3-dimethylaminopropyl)-carbodiimide hydrochloride (EDC) and N-hydroxysuccinimide (NHS) according to the supplier's instructions. MBP-MCL-1 was diluted in 1×PBS-P+ (GE Healthcare) and injected on the activated chip surface. Subsequently, a solution of 1 M ethanolamine-HCl (GE Healthcare) was injected to block unreacted groups, resulting in approximately 400-2500 response units (RU) of immobilized protein. A reference surface was generated by treatment with NHS-EDC and ethanolamine-HCl. Compounds were dissolved in 100% dimethylsulfoxide (DMSO) to a concentration of 10 mM and subsequently diluted in running buffer (1×PBS-P+ (GE Healthcare) [generated from PBS-P+ Buffer 10× (GE Healthcare): 0.2 M phosphate buffer with 27 mM KCl, 1.37 M NaCl and 0.5% Surfactant P20 (Tween 20).], 1% v/v DMSO). For SPR binding-measurements, serial dilutions of compound (eight dilution steps, typically ranging from 0.2 nM up to 1 μM) were injected over immobilized protein. […] Compounds were injected for 60 s followed by a dissociation time of up to 1000 s.
The double-referenced sensorgrams were fit to a simple reversible Langmuir 1:1 reaction mechanism as implemented in the Biacore® T200 and S200 evaluation software (T200 evaluation software version 2.0 and S200 evaluation software version 1.0, GE Healthcare).

MCL1 protein, sequence (Q07820 whole entry): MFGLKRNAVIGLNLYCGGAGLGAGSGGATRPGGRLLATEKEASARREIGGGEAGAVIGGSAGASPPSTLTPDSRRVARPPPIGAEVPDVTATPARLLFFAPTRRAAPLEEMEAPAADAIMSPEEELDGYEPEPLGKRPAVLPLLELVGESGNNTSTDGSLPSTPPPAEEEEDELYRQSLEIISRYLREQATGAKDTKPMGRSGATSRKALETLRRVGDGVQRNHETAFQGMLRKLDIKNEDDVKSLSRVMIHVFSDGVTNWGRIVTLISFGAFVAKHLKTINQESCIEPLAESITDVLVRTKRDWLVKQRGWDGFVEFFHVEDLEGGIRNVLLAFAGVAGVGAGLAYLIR
MCL-1, sequence (Q07820 whole entry K194A/K197A/R201A, looked up): as the sequence (Q07820 whole entry) above, with K194A, K197A, R201A counted along it

Row | IC50 ([1]; 72 hours, listed as 01, read-out: Antiproli A2780 [M] IC50) | IC50 ([1]; Homo sapiens, A2780, 72 h, read-out: Antiproli A2780 [M] IC50) | IC50 [2] | Kd [3] | koff [3] | kon [3] | SMILES
1 | – | – | 14.2 nM | 1.9 nM | 0.0012 s⁻¹ | 590000 M⁻¹ s⁻¹ | CCc1c2c(nn1C)C(CCC1CCOCC1)N(C)S(=O)(=O)CCCn1c(C(=O)O)c(CCCOc3cccc4cc(F)ccc34)c3ccc(Cl)c-2c31 (single isomer, unassigned; enantiomer 1) [Example 61, (+)-4-chloro-3-ethyl-7-{3-[(6-fluoronaphthalen-1-yl)oxy]propyl}-2,14-dimethyl-15-[2-(oxan-4-yl)ethyl]-13,13-dioxo-10,11,12,13,14,15-hexahydro-2H-13lambda^6-pyrazolo[3′,4′:4,5][1,2,8]thiadiazacycloundecino[6,7,8-hi]indole-8-carboxylic acid (Enantiomer 1)]
2 | – | – | 506 nM | 5.3 nM | 0.018 s⁻¹ | 3.4e+06 M⁻¹ s⁻¹ | Cc1c2c(nn1C)CN(C)S(=O)(=O)CCCn1c(C(=O)O)c(CCCOc3cccc4cc(F)ccc34)c3ccc(F)c-2c31 (single isomer, unassigned; enantiomer 2) [Example 39, (+)-4-fluoro-7-{3-[(6-fluoronaphthalen-1-yl)oxy]propyl}-2,3,14-trimethyl-13,13-dioxo-10,11,12,13,14,15-hexahydro-2H-13lambda^6-pyrazolo[3′,4′:4,5][1,2,8]thiadiazacycloundecino-[6,7,8-hi]indole-8-carboxylic acid (Enantiomer 2)]
3 | – | – | 201 nM | 2.8 nM | 0.016 s⁻¹ | 5.6e+06 M⁻¹ s⁻¹ | Cc1c2c(nn1C)C(CCN1CCOCC1)N(C)S(=O)(=O)CCCn1c(C(=O)O)c(CCCOc3cccc4ccccc34)c3cccc-2c31 (single isomer, unassigned; enantiomer 2) [Example 46, 2,3,14-trimethyl-15-[2-(morpholin-4-yl)ethyl]-7-{3-[(naphthalen-1-yl)oxy]propyl}-13,13-dioxo-10,11,12,13,14,15-hexahydro-2H-13lambda^6-pyrazolo[3′,4′:4,5][1,2,8]thiadiazacycloundecino[6,7,8-hi]indole-8-carboxylic acid N-ethylethanamine Salt (Enantiomer 2)]

Further lines, the compound ahead of its results:

Row | SMILES | IC50 ([1]; 72 hours, listed as 01, read-out: Antiproli A2780 [M] IC50) | IC50 ([1]; Homo sapiens, A2780, 72 h, read-out: Antiproli A2780 [M] IC50) | IC50 [2] | Kd [3] | koff [3] | kon [3]
4 | Cc1c2c(nn1C)CN(CCN1CCOCC1)S(=O)(=O)CCCn1c(C(=O)O)c(CCCOc3cccc4ccccc34)c3cccc-2c31 (racemic) [Example 1, (rac)-2,3-Dimethyl-14-[2-(morpholin-4-yl)ethyl]-7-{3-[(naphthalen-1-yl)oxy]propyl}-13,13-dioxo-10,11,12,13,14,15-hexahydro-2H-13λ^6-pyrazolo[3′,4′:4,5][1,2,8]thiadiazacycloundecino-[6,7,8-hi]indole-8-carboxylic acid] | > 3.3e-05 M | 3.21e-05 M | – | – | – | –
5 | CCc1c2c(nn1C)CN(C)S(=O)(=O)CCCn1c(C(=O)O)c(CCCOc3cccc4cc(F)ccc34)c3ccc(F)c-2c31 (single isomer, unassigned; enantiomer 1) [Example 8, (+)-3-Ethyl-4-fluoro-7-{3-[(6-fluoronaphthalen-1-yl)oxy]propyl}-2,14-dimethyl-13,13-dioxo-10,11,12,13,14,15-hexahydro-2H-13λ^6-pyrazolo[3′,4′:4,5][1,2,8]thiadiazacycloundecino-[6,7,8-hi]indole-8-carboxylic acid (Enantiomer 1)] | – | – | 552 nM | 3.6 nM | 0.008 s⁻¹ | 2.2e+06 M⁻¹ s⁻¹
6 | CCc1c2c(nn1C)CN(C)S(=O)(=O)CCCn1c(C(=O)O)c(CCCOc3cccc4cc(F)ccc34)c3ccc(Cl)c-2c31 (single isomer, unassigned; enantiomer 1) [Example 36, (+)-4-chloro-3-ethyl-7-{3-[(6-fluoronaphthalen-1-yl)oxy]propyl}-2,14-dimethyl-13,13-dioxo-10,11,12,13,14,15-hexahydro-2H-13lambda^6-pyrazolo[3′,4′:4,5][1,2,8]thiadiazacycloundecino-[6,7,8-hi]indole-8-carboxylic acid (Enantiomer 1)] | – | – | 86.6 nM | 4 nM | 0.004 s⁻¹ | 1e+06 M⁻¹ s⁻¹
7 | Cc1c2c(nn1C)CN(C1CC1)S(=O)(=O)CCCn1c(C(=O)O)c(CCCOc3cccc4cc(F)ccc34)c3ccc(Cl)c-2c31 (single isomer, unassigned; enantiomer 1) [Example 42, (−)-4-chloro-14-cyclopropyl-7-{3-[(6-fluoro-1-naphthyl)oxy]propyl}-2,3-dimethyl-11,12,14,15-tetrahydro-2H,10H-pyrazolo[3′,4′:4,5][1,2,8]thiadiazacycloundecino[6,7,8-hi]indole-8-carboxylic acid 13,13-dioxide N-diethylamine salt (Enantiomer 1)] | – | – | 157 nM | 7.6 nM | 0.016 s⁻¹ | 2.1e+06 M⁻¹ s⁻¹
8 | Cc1c2c(nn1C)CN(C1CC1)S(=O)(=O)CCCn1c(C(=O)O)c(CCCOc3cccc4ccccc34)c3ccc(Cl)c-2c31 [Example 40, (rac)-4-chloro-14-cyclopropyl-2,3-dimethyl-7-[3-(1-naphthyloxy)propyl]-11,12,14,15-tetrahydro-2H,10H-pyrazolo[3′,4′:4,5][1,2,8]thiadiazacycloundecino[6,7,8-hi]indole-8-carboxylic acid 13,13-dioxide] | – | – | 29400 nM | – | – | –
